Results as given in EPA's ToxValDB 9.5 (doi:10.2903/j.efsa.2009.184r).

Legend:
Anas platyrhynchos = settings: oral, mortality
Lepomis macrochirus = settings: acute; duration: 96 hours; mortality
Apis mellifera = settings: acute; duration: 48 hours; oral; unspecified; mortality
Oncorhynchus mykiss = settings: chronic/long-term; duration: 28 days; growth
Mus musculus = settings: chronic; duration: 18 months; histopathology: nonneoplastic
Daphnia magna = settings: chronic/long-term; duration: 21 days
Tagia sp. = settings: acute; duration: 14 days; mortality
Bibionidae = settings: chronic/long-term; duration: 28 days
Colinus virginianus = settings: acute, oral, mortality
Aphidius rhopalosiphi = experiment: LR50; higher = less toxic; settings: not reported; mortality

For `O=C(NC(=O)c1c(F)cccc1F)Nc1cc(Cl)c(F)c(Cl)c1F` [Teflubenzuron], the LD50 (Anas platyrhynchos; acute, unspecified) was greater than 2000 mg/kg-day, the LD50 (Anas platyrhynchos; short-term, feed) was greater than 1210 mg/kg-day and the LC50 (Lepomis macrochirus) was greater than 6.5 ng/mL. For the same compound, the LD50 (Rattus norvegicus; acute, oral, mortality) was greater than 5000 mg/kg-day, the NOAEL (Rattus norvegicus; chronic) was 40 mg/kg-day and the NOAEL (Rattus norvegicus; subchronic, duration: 90 days, oral, clinical chemistry) was 8 mg/kg-day. For the same compound, the LD50 (Apis mellifera) was greater than 72 µg/piece, the NOEC (Oncorhynchus mykiss) was 0.0186 mg/L and the LOAEL (Mus musculus) was 2.1 mg/kg-day. It also gave an NOEC (Daphnia magna) of 6.2e-05 mg/L, an LC50 (Tagia sp.) greater than 1000 mg/kg and an NOEC (Bibionidae) of 0.05 mg/kg. It also gave an LD50 (Colinus virginianus; diet) greater than 1010 mg/kg-day, an LD50 (Colinus virginianus) greater than 2250 mg/kg-day and an LR50 (Aphidius rhopalosiphi) greater than 180 g/ha.
